The values that follow come from ChEMBL document CHEMBL5543135, “Design and Synthesis of Novel Macrocyclic Derivatives as Potent and Selective Cyclin-Dependent Kinase 7 Inhibitors” (J Med Chem, 2024).

Data set [1] is described as follows: in vitro. Conditions: human, liver microsomes. (Liver microsomes are a subcellular fraction often used to study metabolism.)
Data set [2] is described as follows: in vitro. Conditions: mouse, liver microsomes.

Consider `CC(C)c1cnn2c(NCc3ccccc3)cc(NC[C@H]3CCNC[C@@H]3O)nc12` [CT-7001], for which the values for the half-life at 1 h, 1 µM in “in vitro [1]” and in “in vitro [2]” were more than 186 min and 105 min, respectively.
For `COC1CCCC2(CCNCC2)CNc2nc(n3ncc(C(C)C)c3n2)NCc2ccccc2OC1` (centres undefined), in that order: 16.9 min and 27.7 min.

The half-life is the time needed for the level to fall by half in the phase considered.
